Tested on: houseflies
Assay: Knockdown test on houseflies, oil solution sprayed in a 70 cm cubic chamber
Type: in vivo
Settings: 0.00625% (w/v) oil solution, 0.7 ml sprayed in cubic chamber of 70 cm side length, ten houseflies (5 of each male and female), repeated twice
Protocol: Each of the present invention compounds (1) and (2) (0.00625 parts) produced in the aforementioned Production
Examples was dissolved in 10 parts of dichloromethane and the resulting solution was mixed with 89.99375 parts of an isoparafin solvent (Isper M, registered trademark of Exxon Chemical Company) to prepare a 0.00625% (w/v) oil solution.
Ten houseflies (5 of each male and female) were released in a cubic chamber having a side length of 70 cm and then 0.7 ml of the present invention compound (1) was sprayed through a small window at an inlet of the chamber using a spray gun (spray pressure: 0.9 kg/cm^2). The number of knockdowned houseflies was counted after a given time had passed since completion of spraying, and a knockdown rate (KD rate) was determined (repeated twice). The test was carried out in the same manner, except that the present invention compound (2) was used in place of the present invention compound (1), and then a knockdown rate was determined after a given time (repeated twice).

Compound | Knockdown rate (%) after 7 minutes [%]
C=C/C(C#N)=C/[C@@H]1[C@@H](C(=O)OCc2c(F)c(F)c(COC)c(F)c2F)C1(C)C [Present invention Compound (1), 4-methoxymethyl-2,3,5,6-tetrafluorobenzyl=(1R)-trans-3-[(1Z)-2-cyano-1,3-butadienyl]-2,2-dimethylcyclopropane carboxylate] | 100
C/C=C/C(C#N)=C/[C@@H]1[C@@H](C(=O)OCc2c(F)c(F)c(COC)c(F)c2F)C1(C)C [Present invention compound (2), 4-methoxymethyl-2,3,5,6-tetrafluorobenzyl=(1R)-trans-3-[(1Z,3E)-2-cyano-1,3-pentadienyl]-2,2-dimethylcyclopropane carboxylate] | 100

From US8575213B2, “Pyrethrinoid-type esters as pesticides” (Sumitomo Chemical Company, Limited, priority 2010, dated 2013)
